Results as given in article PMC9804387, “Substrate Peptidomimetic Inhibitors of P. falciparum Plasmepsin X with Potent Antimalarial Activity” (Chemmedchem, 2022).

How the values were obtained:
Pf 3D7 = system: Pf 3D7; parameters: method as in PMID 29074775, PMID 32109369, PMID 23260352, PMID 29519896; conditions: Figure 1, described in literature; cited from earlier work
[1] = system: PMIX processing of the ASP protein; experiment: ASP processing inhibition assay in parasites (western blot, anti-HA); type: cell-based, P. falciparum; conditions: WM382 (1) at 2.5 nM, HA‐tagged ASP parasites
Description: (§1) In this experiment, synchronized late trophozoite/early schizont stage parasites, expressing HA‐tagged ASP, were incubated with 38 (10 μM), the positive control WM382 (1) (2.5 nM) (a dual potent inhibitor of PMIX and PMX) and the DMSO vehicle control. Parasites from each treatment condition were then lysed and the processing of the known PMX and PMIX substrates were detected by western blot as a corollary of protease activity.
P. falciparum ASP and SERA5 Processing Inhibition Assay. P. falciparum substrate processing inhibition assays were performed as previously described.[28] Synchronized ring stage cultures were treated with test compounds 38 (10 μM) and WM382 (2.5 nM)[28] or DMSO as a vehicle control. The parasite cultures were grown to the schizont stage before passing over LD magnetic columns (Miltenyi Biotech) to remove uninfected erythrocytes. Parasites were eluted from columns with RPMI 1640 (in‐house) culture medium to which the appropriate inhibitor at the same concentration had been added. Eluted parasites were adjusted to 5×10^6 schizonts/mL and 150 μL added per well of a 96‐well flat‐bottomed culture plate. […] HA‐tagged apical sushi protein (ASP) was detected in the merozoite fraction with anti‐HA mAb and SERA5 was detected in the supernatant fraction with an anti‐SERA5 polyclonal Ab. […]

PMIX = system: PMIX; parameters: method as in PMID 29074775, PMID 32109369, PMID 23260352, PMID 29519896; conditions: Figure 1, described in literature; cited from earlier work
[2] = system: SERA5 processing by SUB1, indicative of upstream activity by PMX; experiment: SERA5 processing inhibition assay in parasites (western blot, anti-SERA5); type: cell-based, P. falciparum; conditions: WM382 (1) at 2.5 nM
Description: PMX and PMIX ligand cleavage in P. falciparum parasites. It was next determined whether 38 could inhibit PMX and PMIX processing of known invasion and egress ligands in P. falciparum parasites. […] SERA5 is not a direct substrate of PMX, but is processed by SUB1 which itself is activated by PMX. The degree of downstream processing of SERA5 by SUB1 is indicative of PMX activity.
as §1
P. falciparum ASP and SERA5 Processing Inhibition Assay. P. falciparum substrate processing inhibition assays were performed as previously described.[28] Synchronized ring stage cultures were treated with test compounds 38 (10 μM) and WM382 (2.5 nM)[28] or DMSO as a vehicle control. […] HA‐tagged apical sushi protein (ASP) was detected in the merozoite fraction with anti‐HA mAb and SERA5 was detected in the supernatant fraction with an anti‐SERA5 polyclonal Ab. […]

PMX = conditions: Figure 1, described in literature; cited from earlier work

For `CCC1(CC)CC(=O)N([C@@H]2CCOc3ccc(C(=O)N[C@H]4CC(C)(C)Oc5ccccc54)cc32)C(=N)N1` [WM382], the EC50 (Pf 3D7) is listed as 0.6 nM, the “ASP processing by PMIX (western blot)” value [1] is listed as “inhibition of ASP processing” and the IC50 (PMIX) is listed as 0.4 nM. For the same compound, the “SERA5 processing (western blot)” value [2] was “complete inhibition of SERA5 processing” and the IC50 (PMX) was 0.04 nM.
